Read-outs that look alike come from different tables or passages of the source.
Assays:
[1] = Evaluation of pharmacokinetics in mice; type: in vivo; details: male, mouse, plasma, oral; C57 mice, intravenous 5 mg/kg and intragastric 20 mg/kg
Description: Evaluation of Pharmacokinetics in Mice
Male C57 mice (purchased from Hunan SJA Laboratory Animal Co., Ltd, license number: SCXK (Xiang) 2019-0004), 20-25 g, were fasted overnight. On the day of the experiment, 18 male C57 mice were divided into 2 groups, with 9 mice in each group. The test compound was administered intravenously and intragastrically at doses of 5 mg/kg and 20 mg/kg respectively. Before administration and 5 min, 15 min, 30 min, 1 h, 2 h, 4 h, 6 h, 8 h and 24 h after administration, 0.1 ml of blood was collected from the orbital venous plexus, placed in an EDTAK2 centrifuge tube, and centrifuged at 6000 rpm at 4° C. for 5 min, and then the plasma was collected. The plasma sample was added to an acetonitrile solution containing an internal standard (dexamethasone, 500 ng/mL), vortexed and centrifuged at 10,000 rpm for 10 min, and the supernatant was taken for LC-MS/MS analysis. Pharmacokinetic parameters were calculated using the non-compartmental model in WinNonlin Version 8.0 (Pharsight, Mountain View, CA) pharmacokinetic software.

[2] = molecular target: T1, GLP-1 receptor (Homo sapiens, UniProt P43220); assay: HEK293/CRE-luc/GLP-1R cell luciferase reporter test (agonistic effect on GLP-1 receptor); type: cell-based; details: HEK293/CRE-luc/GLP-1R cells
T1 construct: expressed in transfected cells
Description: 1. HEK293/CRE-luc/GLP-1β cell viability
Cell: HEK293/CRE-luc/GLP-1R
Cell culture medium: DMEM+10% FBS+400 μg/ml G418+100 μg/ml Hygromycin B
Frozen stock solution: 90% FBS, 10% (V/V) DMSO
Detection buffer: DMEM+1% FBS
Cells were cultured in DMEM medium+10% FBS+400 μg/ml G418+100 μg/ml Hygromycin B in a CO2 incubator at 37° C., and passaged once every 3-4 days.
Cell plating: Trypsinization adjusted the cell density to 1.67×10^5 cells/mL; 60 μL of cells per well (10000 cells/well) was inoculated in a 384-well plate containing compounds; A NC well (negative control) and a background well (no cells) were set. Incubation was performed for about 18+2 h in the incubator.
Compounds were serially diluted with the detection buffer, and the detection concentration was 0.01 nM-1000 nM.
The cell culture plate was removed and all supernatant was aspirated from the cells. The cells were washed gently 2 times with 1×PBS.
The diluted compound was added to a 384-well plate (10 μL/well), and three replicate wells were set for each concentration. 10 μL of the detection buffer was added to the NC well, sealed and incubated at 37° C. for 6 hours.
The plate was removed, the cells were allowed to equilibrate to room temperature (at least 15 min), and then all supernatant was aspirated from the cells.
Steady-Glo® Reagent was added to the sample well at 10 μL/well and incubated at room temperature for 5 min to lyse the cells.
The test results were read with a BMG microplate reader.
The mean background value was calculated.
The induction factor (Fold of induction, FI)=(induction well value−background value)/(negative control well value −background value) was calculated.
The EC50 value of the sample was calculated using Graphpad Prim 8.0 software using four-parameter fitting analysis.
Mean and standard error (Mean±SEM) were calculated for all results and Graphpad Prism software was used for statistical analysis. Specific data were presented in the form of graphs. P<0.05 was considered to be statistically different.

[3] = molecular target: T2, CYP2D6 (Homo sapiens, UniProt P10635); assay: Cytochrome P450 isoenzyme inhibition test, human liver microsomes: CYP2D6; type: in vitro ADME; details: human liver microsomes 0.1 mg/mL; read-out: IC50, inhibitory activity on CYP2D6
T2 construct: pre-incubated with the human liver microsome solutions containing 5 enzyme mixed substrates; from tissue; host or cells: human liver microsomes
Description: 9. Cytochrome P450 Isoenzyme Inhibition Test Experimental objective: The inhibitory effect of the test compound on the activity of human liver microsomal cytochrome P450 isoenzyme (CYP1A2, CYP2C19, CYP2D6 and CYP3A4) was determined. Experimental operation: The test compound at an incubation concentration of 0, 0.03, 0.1, 0.3, 1, 3, 10, 30 and 100 μM was pre-incubated with the human liver microsome solutions containing 5 enzyme mixed substrates (liver microsome concentration: 0.1 mg/mL) in a water bath at 37° C. for 10 min, respectively, and then a coenzyme factor (NADPH) was added to start the reaction. After incubation in a water bath at 37° C. for 10 min, the reaction was terminated by adding glacial acetonitrile solution containing an internal standard, shaken for 1 min, centrifuged at 4° C. and 10,000 rpm for 10 min, and the supernatant was taken for LC/MS/MS analysis. The amount of metabolites produced by each CYP enzyme substrate was detected. The activity of each CYP isoenzyme was reflected by the production rate of each metabolite. […]

T1 sequence (P43220 24-463): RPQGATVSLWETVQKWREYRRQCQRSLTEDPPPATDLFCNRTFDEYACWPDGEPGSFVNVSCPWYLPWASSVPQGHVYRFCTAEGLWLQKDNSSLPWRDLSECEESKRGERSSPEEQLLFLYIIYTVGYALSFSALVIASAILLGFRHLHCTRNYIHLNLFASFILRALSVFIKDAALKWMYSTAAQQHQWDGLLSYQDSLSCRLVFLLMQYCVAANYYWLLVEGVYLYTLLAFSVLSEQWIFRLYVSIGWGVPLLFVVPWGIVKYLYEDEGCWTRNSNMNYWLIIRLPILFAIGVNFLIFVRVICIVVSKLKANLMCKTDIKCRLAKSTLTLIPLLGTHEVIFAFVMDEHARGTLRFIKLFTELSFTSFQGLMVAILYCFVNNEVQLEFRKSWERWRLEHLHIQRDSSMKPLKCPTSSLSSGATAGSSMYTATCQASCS
T2 sequence (P10635 whole entry): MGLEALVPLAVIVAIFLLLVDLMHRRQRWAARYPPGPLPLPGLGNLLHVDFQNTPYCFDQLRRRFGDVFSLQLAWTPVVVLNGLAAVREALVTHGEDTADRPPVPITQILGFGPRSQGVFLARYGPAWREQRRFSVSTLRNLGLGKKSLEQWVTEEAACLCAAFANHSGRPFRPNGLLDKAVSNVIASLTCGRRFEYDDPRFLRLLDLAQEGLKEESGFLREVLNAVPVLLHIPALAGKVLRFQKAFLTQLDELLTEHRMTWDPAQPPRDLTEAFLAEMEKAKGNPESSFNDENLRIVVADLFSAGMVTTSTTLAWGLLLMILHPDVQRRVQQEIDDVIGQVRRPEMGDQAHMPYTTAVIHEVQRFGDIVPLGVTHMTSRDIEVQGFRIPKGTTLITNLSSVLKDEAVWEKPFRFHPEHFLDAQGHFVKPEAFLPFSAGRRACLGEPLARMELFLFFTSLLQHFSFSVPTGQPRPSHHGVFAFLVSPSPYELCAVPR

For `N#Cc1ccc(COc2cccc(-c3ccc(Cc4nc5sc(C(=O)O)cc5n4C[C@@H]4CCO4)c(F)c3)n2)c(F)c1` [Compound 6, (S)-2-(4-(6-((4-cyano-2-fluorobenzyl)oxy)pyridin-2-yl)-2-fluorobenzyl)-1-(oxetan-2-ylmethyl)-1H-thieno[2,3-d]imidazole-5-carboxylic acid], the bioavailability [1] was > 25%, the EC50 ([2]; 6 hours incubation, class symbols, read-out: EC50) was < 0.01 µM and the EC50 ([2]; bound stated, read-out: EC50 value) was < 0.01 µM. The IC50 [3] was > 50 µM.

From US20240124470A1, “FIVE-MEMBERED RING DERIVATIVE AND MEDICAL USE THEREOF” (SICHUAN HAISCO PHARMACEUTICAL CO., LTD., priority 2020, published 2024)
